Measurements published in article PMC3721637 (Chemistry & biology, 2009).
Each block holds one molecule with its values, some of them ahead of it. No end group written: not given here. carboxyfluorescein = carboxyfluorescein N-terminal label

Legend:
[1] = Biomarker dosing in rats following IFN-γ treatment, plasma level; format: in vivo, rat
[2] = molecular target: recombinant soluble HLA-DQ2 heterodimer (thrombin-cleaved DQ2-αI-gliadin peptide complex) (human) (UniProt P01909); assay: SEC

IFN-γ-treated rats with biomarker detected in plasma ([1]; 20 mg oral gavage after 2 days i.v. IFN-γ, plasma 60 min, 3Q LC-MS/MS): one of four
plasma level in IFN-γ-treated animal relative to control animal ([1]; rats, oral biomarker, single animals with detectable plasma biomarker): ~ 10 fold
Molecule: LQLQPF (PQPHLPY)3PQPQPF [[^13C3]-HHH-33-mer]

percent of peptide bound [2]: > 80%
B1: fluorescein-conjugated EEE-33-mer (synthetically deamidated 33-mer from α2-gliadin) (peptide)
peptide: carboxyfluorescein-LQLQPFPQPELPYPQPELPYPQPELPYPQPQPF

fold by which EEE-33-mer binds more than this peptide [2]: 15.6 fold
B2: fluorescein-conjugated NNN-33-mer biomarker (peptide)
peptide: carboxyfluorescein-LQLQPFPQPNLPYPQPNLPYPQPNLPYPQPQPF
